Measured values: PMC12144822 (Parasites & Vectors, 2025)

Tests used:
Format in all cases: cell-based
Hsa-GABAR = assay: Voltage-clamp concentration-activation, summary over the six human receptors; settings: concentration-activation curves
Experimental: (§1) Defoliculated X. laevis oocytes ordered from Ecocyte Bioscience (Dortmund, Germany) were microinjected with 15–25 nl of cRNA solution (5–50 ng/μl) per oocyte using an automated injector (Roboinject; Multi Channel Systems MCS GmbH, Reutlingen, Germany) and then incubated at 18 °C. All recordings were made 1–5 days post-cRNA injection and were performed at 18 ± 4 °C. Cells were superfused with OR2 medium (NaCl 88 mM, KCl 2.5 mM, HEPES 5 mM, CaCl2•2H2O 1.8 mM, MgCl2•7H2O 1.0 mM, pH 7.4). To ensure that γ2 subunits were integrated into the heteropentamers, we injected fivefold more γ2 than the other subunit cRNAs. Diazepam is a positive allosteric modulator of GABAR only if γ2 subunits are present. Therefore, we used this method to confirm the presence of human and dog GABAA receptor containing the γ2 subunit.
Voltage-clamp measurements were performed as described by Rufener et al.. Oocytes were impaled with two electrodes filled with 3 M KCl, and their membrane potentials were maintained at − 80 mV throughout the experiment. […] Recordings were performed using an automated process equipped with standard two-electrode voltage-clamp configuration (HiClamp system; Multi Channel Systems MCS GmbH). Data were filtered at 10 Hz, captured at 100 Hz and analyzed using proprietary data acquisition and analysis software in MATLAB (Mathworks Inc., Natick, MA, USA). […]

Clu-GABA α1β2γ2 = Clu-GABA α1β2γ2 (Canis lupus familiaris, UniProt A0A2H4NNI8+A0A8I3RPG5+E2RSQ0); assay: Two-electrode voltage-clamp concentration-activation by the natural agonist, receptor expressed in Xenopus oocytes
Sequence of Clu-GABA α1β2γ2 (A0A2H4NNI8 28-456): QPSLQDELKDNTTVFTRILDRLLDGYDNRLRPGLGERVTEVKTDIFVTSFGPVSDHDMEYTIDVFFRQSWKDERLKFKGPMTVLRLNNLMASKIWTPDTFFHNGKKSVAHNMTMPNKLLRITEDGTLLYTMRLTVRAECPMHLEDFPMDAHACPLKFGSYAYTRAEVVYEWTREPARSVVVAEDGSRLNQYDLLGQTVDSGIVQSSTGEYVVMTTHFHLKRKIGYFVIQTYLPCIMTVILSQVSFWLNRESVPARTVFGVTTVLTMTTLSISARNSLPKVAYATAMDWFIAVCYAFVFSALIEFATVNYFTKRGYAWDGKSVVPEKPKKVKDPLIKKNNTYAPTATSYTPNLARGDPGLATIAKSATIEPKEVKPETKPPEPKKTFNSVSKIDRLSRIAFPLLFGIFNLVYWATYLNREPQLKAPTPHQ
Sequence of Clu-GABA α1β2γ2 (A0A8I3RPG5 25-473): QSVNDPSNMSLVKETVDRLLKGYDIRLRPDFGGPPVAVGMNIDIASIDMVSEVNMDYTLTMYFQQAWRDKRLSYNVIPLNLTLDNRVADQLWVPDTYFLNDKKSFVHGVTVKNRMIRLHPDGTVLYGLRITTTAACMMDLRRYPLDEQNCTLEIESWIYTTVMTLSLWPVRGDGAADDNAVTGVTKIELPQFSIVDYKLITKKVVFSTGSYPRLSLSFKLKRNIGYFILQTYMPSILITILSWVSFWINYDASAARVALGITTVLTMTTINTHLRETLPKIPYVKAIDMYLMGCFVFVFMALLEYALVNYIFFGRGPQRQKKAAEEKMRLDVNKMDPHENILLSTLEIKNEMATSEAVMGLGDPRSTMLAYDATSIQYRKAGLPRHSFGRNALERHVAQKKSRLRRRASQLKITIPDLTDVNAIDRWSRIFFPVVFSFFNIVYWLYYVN
Sequence of Clu-GABA α1β2γ2 (E2RSQ0 40-467): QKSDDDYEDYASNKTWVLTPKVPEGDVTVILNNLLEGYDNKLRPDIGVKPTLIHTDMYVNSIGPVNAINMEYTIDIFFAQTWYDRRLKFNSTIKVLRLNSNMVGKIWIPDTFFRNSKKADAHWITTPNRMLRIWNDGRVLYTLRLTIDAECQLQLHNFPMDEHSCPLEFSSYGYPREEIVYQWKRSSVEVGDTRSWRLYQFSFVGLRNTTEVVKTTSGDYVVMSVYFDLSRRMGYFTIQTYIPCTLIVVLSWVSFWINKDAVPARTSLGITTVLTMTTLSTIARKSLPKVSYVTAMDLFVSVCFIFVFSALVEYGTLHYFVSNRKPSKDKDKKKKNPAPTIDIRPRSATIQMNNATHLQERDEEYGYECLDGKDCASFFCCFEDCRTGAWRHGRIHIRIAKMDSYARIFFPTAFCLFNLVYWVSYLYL
Description: (§2) Complementary DNA (cDNA) encoding for the human GABAA proteins α1 (NM_001127645.2), α2 (NM_001377146.1), α3 (KJ620007.1), α4 (NM_000809.4), α5 (NM_000810.4), α6 (NM_000811.3), β2 (XM_054352312.1), β3 (M82919.1), γ2 (NM_000816.3) and δ (NM_000815.5) were ordered from Genewiz (www.genewiz.com; Leipzig, Germany); for each gene, GenBank accession numbers are provided in parentheses. When necessary, silent mutations were introduced to break NheI or XhoI internal restriction sites. The corresponding open reading frames (ORF) were cloned into the pT7-TS transcription vector (introducing X. laevis β-globin untranslated cDNA to the 5’ and 3’ ends of the gene), following a procedure described in detail in a previous publication. The same process was used to obtain cDNA encoding canine GABAA proteins α4 (XM_025435560.1), α6 (XM_022417729.1) and δ (XM_005620414.2). Gene α2 (XM_025435664.1), α3 (XM_549343.5), α5 (XM_545805.6) and β3 (XM_025437408.1) were obtained by PCR; GenBank reference accession numbers are provided in parentheses. RNA extraction, cDNA synthesis and PCR amplification were performed as described previously. Total RNA was extracted from a piece of dog brain (Beagle breed; Canis lupus familiaris) from which 1 µg of total RNA (DNase-treated) was reverse-transcribed to cDNA using a (dT)30 primer and SuperScript III Reverse Transcriptase (Invitrogen, Thermo Fisher Scientific, Waltham, MA, USA). Gene-specific primers (Additional file 1: Table S1) were designed using Primer 3 software (http://frodo.wi.mit.edu/). […] The cycling conditions were: 98 °C for 30 s; then 38 cycles of 98 °C for 10 s, 58 °C for 30 s and 72 °C for 90 s; followed by 72 °C for 5 min. The dog subunits α1 (XM_546261.5), β2 (XM_014113040.1) and γ2 (XM_546259.5) had been previously amplified and described in a study by Rufener et al..
as §1
(§3) Voltage-clamp measurements were performed as described by Rufener et al.. Oocytes were impaled with two electrodes filled with 3 M KCl, and their membrane potentials were maintained at − 80 mV throughout the experiment. […] Recordings were performed using an automated process equipped with standard two-electrode voltage-clamp configuration (HiClamp system; Multi Channel Systems MCS GmbH). Data were filtered at 10 Hz, captured at 100 Hz and analyzed using proprietary data acquisition and analysis software in MATLAB (Mathworks Inc., Natick, MA, USA). Additional analyses were performed using Excel (Microsoft, Redmond, WA, USA). […] Graphing the maximum inward currents against the log of agonist concentration produces typical concentration-activation and concentration-inhibition curves, which can be accurately described using individual Hill equations.

Clu-GABA α3β2γ2 = Clu-GABA α3β2γ2 (Canis lupus familiaris, UniProt A0A8I3PRS3+A0A8I3RPG5+E2RSQ0); assay: as above
Sequence of Clu-GABA α3β2γ2 (A0A8I3PRS3 29-259): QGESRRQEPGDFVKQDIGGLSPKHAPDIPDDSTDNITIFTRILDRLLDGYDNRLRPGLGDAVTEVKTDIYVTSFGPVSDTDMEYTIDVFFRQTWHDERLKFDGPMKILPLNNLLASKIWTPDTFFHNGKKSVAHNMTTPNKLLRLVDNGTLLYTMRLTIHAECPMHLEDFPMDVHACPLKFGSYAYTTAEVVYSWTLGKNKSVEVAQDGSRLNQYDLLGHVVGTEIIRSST
Sequence of Clu-GABA α3β2γ2 (A0A8I3RPG5 25-473): as the sequence (A0A8I3RPG5 25-473) above
Sequence of Clu-GABA α3β2γ2 (E2RSQ0 40-467): as the sequence (E2RSQ0 40-467) above
Description: as §2, §1, §3

Clu-GABA α2β2γ2 = Clu-GABA α2β2γ2 (Canis lupus familiaris, UniProt A0A8I3RPG5+A0A8I3S1N5+E2RSQ0); assay: as above
Sequence of Clu-GABA α2β2γ2 (A0A8I3S1N5 29-451): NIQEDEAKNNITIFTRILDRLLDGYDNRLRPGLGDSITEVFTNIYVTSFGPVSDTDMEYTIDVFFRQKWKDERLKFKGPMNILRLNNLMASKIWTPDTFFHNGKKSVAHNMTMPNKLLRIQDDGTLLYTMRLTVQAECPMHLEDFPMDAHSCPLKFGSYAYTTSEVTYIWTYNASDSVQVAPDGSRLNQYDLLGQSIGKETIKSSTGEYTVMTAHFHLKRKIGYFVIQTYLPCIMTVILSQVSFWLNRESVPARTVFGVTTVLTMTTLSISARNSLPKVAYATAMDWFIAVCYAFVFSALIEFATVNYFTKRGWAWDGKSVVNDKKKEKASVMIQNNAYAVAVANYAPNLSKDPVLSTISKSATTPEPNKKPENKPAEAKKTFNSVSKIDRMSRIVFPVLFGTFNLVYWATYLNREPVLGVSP
Sequence of Clu-GABA α2β2γ2 (A0A8I3RPG5 25-473): as the sequence (A0A8I3RPG5 25-473) above
Sequence of Clu-GABA α2β2γ2 (E2RSQ0 40-467): as the sequence (E2RSQ0 40-467) above
Description: as §2, §1, §3

Clu-GABA α2β3γ2 = Clu-GABA α2β3γ2 (Canis lupus familiaris, UniProt A0A8I3NUI4+A0A8I3S1N5+E2RSQ0); assay: as above
Sequence of Clu-GABA α2β3γ2 (A0A8I3S1N5 29-451): as the sequence (A0A8I3S1N5 29-451) above
Sequence of Clu-GABA α2β3γ2 (A0A8I3NUI4 101-496): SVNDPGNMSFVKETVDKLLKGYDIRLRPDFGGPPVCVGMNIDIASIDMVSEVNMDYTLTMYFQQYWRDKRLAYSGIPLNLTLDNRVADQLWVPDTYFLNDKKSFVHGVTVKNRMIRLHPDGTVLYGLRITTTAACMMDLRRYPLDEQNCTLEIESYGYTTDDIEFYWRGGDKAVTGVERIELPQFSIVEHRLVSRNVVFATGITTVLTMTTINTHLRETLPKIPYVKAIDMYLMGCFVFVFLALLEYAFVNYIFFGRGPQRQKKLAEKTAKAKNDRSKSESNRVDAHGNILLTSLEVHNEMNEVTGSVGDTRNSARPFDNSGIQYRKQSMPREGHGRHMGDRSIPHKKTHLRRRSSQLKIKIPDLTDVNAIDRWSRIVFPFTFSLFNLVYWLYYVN
Sequence of Clu-GABA α2β3γ2 (E2RSQ0 40-467): as the sequence (E2RSQ0 40-467) above
Description: as §2, §1, §3

Clu-GABA α5β2γ2 = Clu-GABA α5β2γ2 (Canis lupus familiaris, UniProt A0A8I3PC22+A0A8I3RPG5+E2RSQ0); assay: as above
Sequence of Clu-GABA α5β2γ2 (A0A8I3PC22 32-462): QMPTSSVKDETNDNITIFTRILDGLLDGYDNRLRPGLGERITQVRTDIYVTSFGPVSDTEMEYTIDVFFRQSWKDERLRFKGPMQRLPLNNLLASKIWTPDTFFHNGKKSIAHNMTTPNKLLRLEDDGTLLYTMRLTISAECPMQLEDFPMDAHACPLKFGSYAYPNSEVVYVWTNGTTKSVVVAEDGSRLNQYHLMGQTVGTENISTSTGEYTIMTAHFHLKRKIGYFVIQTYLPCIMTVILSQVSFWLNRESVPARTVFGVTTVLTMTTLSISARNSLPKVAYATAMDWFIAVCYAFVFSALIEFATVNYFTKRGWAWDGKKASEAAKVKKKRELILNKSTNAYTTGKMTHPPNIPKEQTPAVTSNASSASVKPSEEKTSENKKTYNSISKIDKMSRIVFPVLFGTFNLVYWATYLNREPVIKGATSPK
Sequence of Clu-GABA α5β2γ2 (A0A8I3RPG5 25-473): as the sequence (A0A8I3RPG5 25-473) above
Sequence of Clu-GABA α5β2γ2 (E2RSQ0 40-467): as the sequence (E2RSQ0 40-467) above
Description: as §2, §1, §3

[1] = agonist, 10 s applications, Xenopus oocytes, −80 mV

`NCCCC(=O)O` [GABA, gamma-aminobutyric acid] was tested, and the “Hill coefficients over the six Hsa-GABAR” value (Hsa-GABAR) was “higher than 1”, the EC50 (Clu-GABA α1β2γ2; [1]) was 10 µM and the “nH (Hill coefficient)” value (Clu-GABA α1β2γ2; concentration-activation curve) was 1.0. For the same compound, the EC50 (Clu-GABA α3β2γ2; [1]) was 40.4 µM, the “nH (Hill coefficient)” value (Clu-GABA α3β2γ2; concentration-activation curve) was 0.8 and the EC50 (Clu-GABA α2β2γ2; [1]) was 42 µM. The “nH (Hill coefficient)” value (Clu-GABA α2β2γ2; concentration-activation curve) was 1.3, the EC50 (Clu-GABA α2β3γ2; [1]) was 8.6 µM and the “nH (Hill coefficient)” value (Clu-GABA α2β3γ2; concentration-activation curve) was 1.6. The EC50 (Clu-GABA α5β2γ2; [1]) was 8.1 µM and the “nH (Hill coefficient)” value (Clu-GABA α5β2γ2; concentration-activation curve) was 1.1.
